Calls of active or inactive are those of the source. The rule behind the calls is not given here.
Experiments:
[1] = system: L02; assay: Synergistic antiproliferative activity against human L02 cells at 2.5 to 12.5 uM measured after 72 hrs in presence of CDDO-Me by MTT assay; format: toxicity, cell-based; conditions: l02, 72 h, dose 2.5-12.5 µM
[2] = system: A549; assay: Antitumor activity at human A549 cells xenografted in BALB/c mouse assessed as reduction in tumor growth at 12 umol/kg, iv administered for 20 days and measured every 3 days for 21 days in presence of CDDO-Me; format: functional, organism-based; conditions: dose 12.0 µmol/kg, time 21.0 day
[3] = system: HFL1; assay: Synergistic antiproliferative activity against human HFL1 cells at 2.5 to 12.5 uM measured after 72 hrs in presence of CDDO-Me by MTT assay; format: toxicity, cell-based; conditions: hfl1, 72 h, dose 2.5-12.5 µM
[4] = Toxicity in ICR mouse assessed as effect on AST level at 12 umol/kg, ip measured after 12 hrs in presence of CDDO-Me; format: organism-based; conditions: in vivo, dose 12 µmol/kg
[5] = Toxicity in ICR mouse assessed as effect on ALT level at 12 umol/kg, ip measured after 12 hrs in presence of CDDO-Me; format: organism-based; conditions: in vivo, dose 12 µmol/kg
[6] = system: A549; assay: Induction of apoptosis in human A549 cells assessed as upregulation of Bax level at 1 to 4 uM incubated for 72 hrs by Western blot analysis; format: functional, cell-based; conditions: dose 1-4 µM
[7] = system: A549; assay: Induction of necrosis in human A549 cells xenografted in BALB/c mouse at 12 umol/kg, iv administered for 20 days and measured every 3 days for 21 days by TUNEL assay; format: functional, organism-based; conditions: dose 12.0 µmol/kg, time 21.0 day
[8] = system: L02; assay: Synergistic antiproliferative activity against human L02 cells at 2.5 to 12.5 uM measured after 72 hrs in presence of SAHA by MTT assay; format: toxicity, cell-based; conditions: l02, 72 h, dose 2.5-12.5 µM
[9] = system: A549; assay: Antitumor activity at human A549 cells xenografted in BALB/c mouse assessed as reduction in tumor growth at 12 umol/kg, iv administered for 20 days and measured every 3 days for 21 days; format: functional, organism-based; conditions: dose 12.0 µmol/kg, time 21.0 day
[10] = biological target: T1, Histone deacetylase (Homo sapiens) (UniProt Q13547+O15379+Q9UBN7+Q92769+Q9UQL6+Q8WUI4+Q9BY41+Q96DB2+P56524+Q9UKV0+Q969S8); assay: Inhibition of HDAC in human A549 cells assessed as activation of Bax expression at 1 to 4 uM incubated for 72 hrs in presence of SAHA by Western blot analysis; format: cell-based; conditions: dose 1-4 µM
[11] = system: A549; assay: Induction of apoptosis in human A549 cells assessed as upregulation of Mcl-1 level at 1 to 4 uM incubated for 72 hrs by Western blot analysis; format: functional, cell-based; conditions: dose 1-4 µM
[12] = system: HT-29; assay: Synergistic antiproliferative activity against human HT-29 cells at 2.5 to 12.5 uM measured after 72 hrs in presence of SAHA by MTT assay; format: functional, cell-based; conditions: dose 2.5-12.5 µM
[13] = system: HepG2; assay: Synergistic antiproliferative activity against human HepG2 cells at 2.5 to 12.5 uM measured after 72 hrs in presence of SAHA by MTT assay; format: functional, cell-based; conditions: dose 2.5-12.5 µM
[14] = system: A549; assay: Induction of ROS accumulation in human A549 cells at 15 uM incubated for 2 hrs by DCFH2-DA staining based confocal microscopic analysis; format: functional, cell-based
[15] = biological target: T1, Histone deacetylase (Homo sapiens); assay: Inhibition of HDAC in human A549 cells assessed as activation of Bax expression at 1 to 4 uM incubated for 72 hrs in presence of CDDO-Me by Western blot analysis; format: cell-based; conditions: dose 1-4 µM
[16] = system: A549; assay: Induction of apoptosis in human A549 cells assessed as upregulation of cleaved-PARP level at 1 to 4 uM incubated for 72 hrs by Western blot analysis; format: functional, cell-based; conditions: dose 1-4 µM
[17] = system: MCF7; assay: Synergistic antiproliferative activity against human MCF7 cells at 2.5 to 12.5 uM measured after 72 hrs in presence of CDDO-Me by MTT assay; format: functional, cell-based; conditions: dose 2.5-12.5 µM
[18] = system: HFL1; assay: Synergistic antiproliferative activity against human HFL1 cells at 2.5 to 12.5 uM measured after 72 hrs in presence of SAHA by MTT assay; format: toxicity, cell-based; conditions: hfl1, 72 h, dose 2.5-12.5 µM
[19] = system: A549; assay: Induction of apoptosis in human A549 cells xenografted in BALB/c mouse at 12 umol/kg, iv administered for 20 days and measured every 3 days for 21 days by H and E staining based assay; format: functional; conditions: dose 12 µmol/kg, time 21 day
[20] = system: HT-29; assay: Synergistic antiproliferative activity against human HT-29 cells at 2.5 to 12.5 uM measured after 72 hrs in presence of CDDO-Me by MTT assay; format: functional, cell-based; conditions: dose 2.5-12.5 µM
[21] = Stability of the compound in rat plasma assessed as prodrug release at 100 ug/ml measured for 8 hrs by HPLC analysis; format: ADME, cell-free; conditions: at 100 µg/mL
[22] = system: A549; assay: Synergistic antiproliferative activity against human A549 cells at 2.5 to 12.5 uM measured after 72 hrs in presence of SAHA by MTT assay; format: functional, cell-based; conditions: dose 2.5-12.5 µM
[23] = system: A549; assay: Synergistic antiproliferative activity against human A549 cells at 2.5 to 12.5 uM measured after 72 hrs in presence of CDDO-Me by MTT assay; format: functional, cell-based; conditions: dose 2.5-12.5 µM
[24] = system: MCF7; assay: Synergistic antiproliferative activity against human MCF7 cells at 2.5 to 12.5 uM measured after 72 hrs in presence of SAHA by MTT assay; format: functional, cell-based; conditions: dose 2.5-12.5 µM
[25] = system: A549; assay: Induction of apoptosis in human A549 cells xenografted in BALB/c mouse at 12 umol/kg, iv administered for 20 days and measured every 3 days for 21 days by TUNEL assay; format: functional, organism-based; conditions: dose 12.0 µmol/kg, time 21.0 day
[26] = Drug distribution in BALB/c mouse xenografted with human A549 cells assessed as increase in fluorescence in tumor signal at 20 mg/kg, iv measured after 4 to 24 hrs post injection; format: ADME, organism-based; conditions: in vivo, time 4-24 hrs
[27] = Stability of the compound in rat plasma assessed as prodrug release at 100 ug/ml measured for 8 to 12 hrs by HPLC analysis; format: ADME, cell-free; conditions: at 100 µg/mL, time 8-12 hrs
[28] = system: A549; assay: Induction of DNA damage in human A549 cells assessed as increase in H2AX level incubated for 72 hrs by Western blot analysis; format: functional, cell-based; conditions: dose 1-4 µM, DDE = dose-dependent effect
[29] = system: A549; assay: Induction of mitochondrial membrane depolarization in human A549 cells at 15 uM incubated for 2 hrs by JC-1 staining based analysis; format: functional, cell-based
[30] = Drug localization in mitochondria of human A549 cells measured after 4 hrs by Mito Tracker Green FM based confocal laser scanning microscopy analysis; format: ADME; conditions: a549, 4 h
[31] = system: A549; assay: Induction of necrosis in human A549 cells xenografted in BALB/c mouse at 12 umol/kg, iv administered for 20 days and measured every 3 days for 21 days by H and E staining based assay; format: functional, organism-based; conditions: dose 12.0 µmol/kg, time 21.0 day
[32] = Toxicity in ICR mouse assessed as effect on ALT level at 12 umol/kg, ip measured after 12 hrs; format: organism-based; conditions: in vivo, dose 12 µmol/kg
[33] = Toxicity in BALB/c mouse xenografted with human A549 cells assessed as change in body weight at 12 umol/kg, iv administered for 20 days and measured every 3 days for 21 days; format: organism-based; conditions: in vivo, 504 h, dose 12 µmol/kg, time 21 day
[34] = Toxicity in ICR mouse assessed as accumulation of lipid droplets in liver at 12 umol/kg, ip measured after 12 hrs by H and E staining based analysis; format: organism-based; conditions: in vivo, dose 12 µmol/kg
[35] = Toxicity in ICR mouse assessed as effect on AST level at 12 umol/kg, ip measured after 12 hrs; format: organism-based; conditions: in vivo, dose 12 µmol/kg
[36] = biological target: T2, Protein deacetylase HDAC6 (Homo sapiens) (UniProt Q9UBN7); assay: Inhibition of HDAC6 in human A549 cells assessed as reduction in HDAC expression at 1 to 4 uM incubated for 72 hrs by Western blot analysis; format: cell-based; conditions: dose 1-4 µM
T2 sequence (whole entry): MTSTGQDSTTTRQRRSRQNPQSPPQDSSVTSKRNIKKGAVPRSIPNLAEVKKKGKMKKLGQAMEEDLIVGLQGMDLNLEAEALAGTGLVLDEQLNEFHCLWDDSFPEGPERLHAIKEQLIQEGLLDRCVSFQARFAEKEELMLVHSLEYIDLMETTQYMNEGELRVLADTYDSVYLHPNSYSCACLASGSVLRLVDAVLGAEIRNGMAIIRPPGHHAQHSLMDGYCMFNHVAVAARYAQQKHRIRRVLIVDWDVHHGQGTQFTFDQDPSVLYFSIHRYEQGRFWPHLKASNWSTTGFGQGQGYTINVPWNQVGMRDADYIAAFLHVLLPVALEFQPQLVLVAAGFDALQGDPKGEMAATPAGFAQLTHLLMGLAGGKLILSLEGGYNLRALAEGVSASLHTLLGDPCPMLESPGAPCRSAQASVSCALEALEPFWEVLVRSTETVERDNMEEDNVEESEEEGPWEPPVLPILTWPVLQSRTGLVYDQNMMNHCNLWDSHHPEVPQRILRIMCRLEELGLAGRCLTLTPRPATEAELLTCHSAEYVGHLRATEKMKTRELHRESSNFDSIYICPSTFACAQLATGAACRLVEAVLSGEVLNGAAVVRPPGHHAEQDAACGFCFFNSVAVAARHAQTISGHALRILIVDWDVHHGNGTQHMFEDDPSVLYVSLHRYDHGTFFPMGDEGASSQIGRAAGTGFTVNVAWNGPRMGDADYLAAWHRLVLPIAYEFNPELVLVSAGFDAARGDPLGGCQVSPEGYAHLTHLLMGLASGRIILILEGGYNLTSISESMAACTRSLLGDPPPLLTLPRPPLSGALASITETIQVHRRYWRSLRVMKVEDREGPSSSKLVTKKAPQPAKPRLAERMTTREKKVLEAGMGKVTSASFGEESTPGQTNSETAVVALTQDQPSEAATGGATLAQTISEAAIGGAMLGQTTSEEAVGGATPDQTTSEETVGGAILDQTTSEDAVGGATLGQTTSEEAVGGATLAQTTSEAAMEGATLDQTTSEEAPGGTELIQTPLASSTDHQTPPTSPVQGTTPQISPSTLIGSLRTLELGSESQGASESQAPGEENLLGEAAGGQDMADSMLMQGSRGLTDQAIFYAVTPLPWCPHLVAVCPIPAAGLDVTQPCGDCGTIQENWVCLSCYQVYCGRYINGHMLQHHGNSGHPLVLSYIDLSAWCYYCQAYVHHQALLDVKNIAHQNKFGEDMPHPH

[37] = system: HepG2; assay: Synergistic antiproliferative activity against human HepG2 cells at 2.5 to 12.5 uM measured after 72 hrs in presence of CDDO-Me by MTT assay; format: functional, cell-based; conditions: dose 2.5-12.5 µM

Compound: O=C(CCCCCCC(=O)Nc1ccccc1)NO [VORINOSTAT]
- Activity [1]: Non-Toxic
- Activity [2]: Active
- Activity [3]: Non-Toxic
- Activity [4]: Toxic
- Activity [5]: Toxic

Compound: COC(=O)[C@]12CCC(C)(C)C[C@H]1[C@H]1C(=O)C=C3[C@@]4(C)C(ONC(=O)CCCCCCC(=O)Nc5ccccc5)C(C#N)=C(OCc5ccc(OC(=O)C(C)SCCCSC(C)C(=O)Oc6ccc7c(c6)OC6=C(/C=C/C8=[N+](CCCc9cn(CCOCCOCCNC(=O)CCCC[C@H]%10SC[C@H]%11NC(=O)N[C@H]%11%10)nn9)c9ccc%10ccccc%10c9C8(C)C)CCCC6=C7)cc5)C(C)(C)[C@@H]4CC[C@@]3(C)[C@]1(C)CC2.[I-] (some centres undefined)
- Activity [1]: Non-Toxic
- Activity [6]: Active
- Activity [7]: Active
- Activity [8]: Non-Toxic
- Activity [9]: Active
- inhibition [10]: Active
- Activity [11]: Active
- Activity [12]: Active
- Activity [13]: Active
- Activity [14]: Active
- inhibition [15]: Active
- Activity [16]: Active
- Activity [3]: Non-Toxic
- Activity [17]: Active
- Activity [18]: Non-Toxic
- Activity [19]: 53.3%
- Activity [20]: Active
- Drug metabolism [21]: < 10%
- Activity [22]: Active
- Activity [23]: Active
- Activity [24]: Active
- Activity [25]: Active
- Drug uptake [26]: Active
- Drug metabolism [27]: 20%
- Activity [28]: Dde
- Activity [29]: Active
- Drug uptake [30]: Active
- Activity [31]: Active
- Activity [32]: Non-Toxic
- Activity [33]: Non-Toxic
- Activity [34]: Non-Toxic
- Activity [35]: Non-Toxic
- inhibition [36]: Active
- Activity [37]: Active

Source: ChEMBL document CHEMBL5137072, “Redox-Activatable Theranostic Co-Prodrug for Precise Tumor Diagnosis and Selective Combination Chemotherapy” (J Med Chem, 2022)
